The Ki is the dissociation constant of the complex between target and ligand, obtained from inhibition or displacement. For orientation: Kd means the free concentration of one partner at which half of the binding sites on the other are occupied at equilibrium, for simple one-to-one binding.

Here are results for 3 molecules from article PMC6989399, “A drug library screen identifies Carbenoxolone as novel FOXO inhibitor that overcomes FOXO3-mediated chemoprotection in high-stage neuroblastoma” (Oncogene, 2019).

One data set has as its target FOXO4-DBD (Homo sapiens, UniProt P98177). The data set is described as follows: competitive fluorescence polarization (displacement of IRE-FAM oligonucleotide), […] CBX. The class given is binding.
Data set [1] deals with FOXO3-DBD (Homo sapiens, UniProt O43524). In words: competitive fluorescence polarization (displacement of IRE-FAM oligonucleotide), confirmed by FAM-EMSA. Type of data set: binding. (In EMSA bound probe runs differently from free probe, usually more slowly.)
A further data set concerns the target FOXO6-DBD (Homo sapiens, UniProt A8MYZ6). In words: competitive fluorescence polarization (displacement of IRE-FAM oligonucleotide), […] CBX. Type of data set: binding. Background: In fluorescence polarisation assays a small probe gives low polarisation when free and higher when bound to something large.
Data set [2] has as its target T1, FOXO3-DBD (Homo sapiens, UniProt O43524 156-269). In words: EMSA; 1 uM protein, 100 nM DNA; FPA: 200 mM Tris pH 7.5, 100 mM NaCl, 1 mM EDTA (BSA-precoated plates), 30 min RT (15 C, uncoated for FOXO1/3/4/6 comparison); FAM-EMSA: 20 mM Tris pH 7.5, 100. To be noted: protein: recombinant; tags: N-terminal GST; His (GST-His-purified); blunt.
Data set [3] addresses T1, FOXO3-DBD. The data set is described as follows: fluorescence polarization; 5 nM IRE-FAM, 1-350 nM protein; FPA: 200 mM Tris pH 7.5, 100 mM NaCl, 1 mM EDTA (BSA-precoated plates), 30 min RT (15 C, uncoated for FOXO1/3/4/6 comparison); FAM-EMSA: 20 mM Tris pH 7.5, 100. To be noted: protein: recombinant; tags: N-terminal GST; His (GST-His-purified); blunt.

T1 sequence (O43524 156-269): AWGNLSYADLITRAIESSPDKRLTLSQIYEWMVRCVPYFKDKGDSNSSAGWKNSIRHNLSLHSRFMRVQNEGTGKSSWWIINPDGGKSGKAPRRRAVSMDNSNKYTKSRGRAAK
FOXO3-DBD (Homo sapiens, UniProt O43524), sequence (O43524 156-269): as above
FOXO6-DBD, sequence (A8MYZ6 87-200): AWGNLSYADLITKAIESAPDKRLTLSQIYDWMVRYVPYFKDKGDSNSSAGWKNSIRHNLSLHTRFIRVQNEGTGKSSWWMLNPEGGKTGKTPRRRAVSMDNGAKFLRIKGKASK
FOXO4-DBD, sequence (P98177 82-207): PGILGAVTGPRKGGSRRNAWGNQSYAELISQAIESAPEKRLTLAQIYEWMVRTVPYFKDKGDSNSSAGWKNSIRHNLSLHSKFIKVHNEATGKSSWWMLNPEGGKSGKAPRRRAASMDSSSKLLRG

For `CC1(C)[C@@H](OC(=O)CCC(=O)O)CC[C@]2(C)[C@H]3C(=O)C=C4[C@@H]5C[C@@](C)(C(=O)O)CC[C@]5(C)CC[C@@]4(C)[C@]3(C)CC[C@@H]12` [CBX, Carbenoxolone], the “competitive fluorescence polarization (displacement of IRE-FAM oligonucleotide),” value at FOXO4-DBD was “CBX binds in addition to the FOXO3-DBD, also the FOXO1-DBD, the FOXO4-DBD, as well as the FOXO6-DBD”; at FOXO6-DBD it was “CBX binds in addition to the FOXO3-DBD, also the FOXO1-DBD, the FOXO4-DBD, as well as the FOXO6-DBD”. On FOXO3-DBD [1], affinity was put at a Ki of 19 µM.

B1: FoxP3-FAM (dsDNA)
DNA 1: AGCAAAGTTGTTTTTGATAATG
DNA 2: CATTATCAAAAACAACTTTGCT
With B1, in the data set with FOXO3-DBD [2], the binding result is recorded as “binds”.

B2: IRE-FAM (dsDNA)
DNA 1: CTATCAAAACAACGC
DNA 2: GCGTTGTTTTGATAG
B2: in the data set with FOXO3-DBD [3], the Kd stood at 0.0534 µM.
